Test results taken from PubChem BioAssay (NCI).
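How tested: cells in 96-well plates exposed to compound for 48 hours at five concentrations. TGI: total growth inhibition.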

Assays:
Assay in all cases: NCI-60 cell line screen, 48 h
RPMI-8226 leukemia = tested on: RPMI-8226 leukemia
NCI-H226 lung = tested on: NCI-H226 lung
KM12 colon = tested on: KM12 colon
A498 renal = tested on: A498 renal
LOX IMVI melanoma = tested on: LOX IMVI melanoma
IGROV1 ovarian = tested on: IGROV1 ovarian
T-47D breast = tested on: T-47D breast
NCI-H460 lung = tested on: NCI-H460 lung
CCRF-CEM leukemia = tested on: CCRF-CEM leukemia
SW-620 colon = tested on: SW-620 colon
SNB-75 CNS = tested on: SNB-75 CNS
OVCAR-5 ovarian = tested on: OVCAR-5 ovarian
HOP-62 NSCLC = tested on: HOP-62 NSCLC
MDA-MB-435 = tested on: MDA-MB-435
DU-145 prostate = tested on: DU-145 prostate
CAKI-1 renal = tested on: CAKI-1 renal
NCI-H23 lung = tested on: NCI-H23 lung
TK-10 renal = tested on: TK-10 renal
MDA-N = tested on: MDA-N
RXF 393 renal = tested on: RXF 393 renal
SF-539 CNS = tested on: SF-539 CNS
SK-MEL-5 melanoma = tested on: SK-MEL-5 melanoma
SK-MEL-28 melanoma = tested on: SK-MEL-28 melanoma
K-562 leukemia = tested on: K-562 leukemia
SF-295 CNS = tested on: SF-295 CNS
SNB-19 CNS = tested on: SNB-19 CNS
EKVX NSCLC = tested on: EKVX NSCLC
SF-268 CNS = tested on: SF-268 CNS
786-0 renal = tested on: 786-0 renal
HS 578T breast = tested on: HS 578T breast
OVCAR-8 ovarian = tested on: OVCAR-8 ovarian
M14 melanoma = tested on: M14 melanoma
A549 NSCLC = tested on: A549 NSCLC
MOLT-4 leukemia = tested on: MOLT-4 leukemia
SR leukemia = tested on: SR leukemia
PC-3 prostate = tested on: PC-3 prostate
SK-OV-3 ovarian = tested on: SK-OV-3 ovarian
SK-MEL-2 melanoma = tested on: SK-MEL-2 melanoma
HCT-15 colon = tested on: HCT-15 colon
SN12C renal = tested on: SN12C renal
U251 CNS = tested on: U251 CNS
MALME-3M melanoma = tested on: MALME-3M melanoma
HCT-116 colon = tested on: HCT-116 colon
NCI-H522 lung = tested on: NCI-H522 lung
OVCAR-3 ovarian = tested on: OVCAR-3 ovarian
MCF7 breast = tested on: MCF7 breast
ACHN renal = tested on: ACHN renal
OVCAR-4 ovarian = tested on: OVCAR-4 ovarian
HOP-92 NSCLC = tested on: HOP-92 NSCLC
HT29 colon = tested on: HT29 colon
NCI/ADR-RES ovarian = tested on: NCI/ADR-RES ovarian
MDA-MB-231 breast = tested on: MDA-MB-231 breast
UO-31 renal = tested on: UO-31 renal
UACC-62 melanoma = tested on: UACC-62 melanoma
UACC-257 melanoma = tested on: UACC-257 melanoma
COLO 205 colon = tested on: COLO 205 colon
BT-549 breast = tested on: BT-549 breast
HL-60(TB) leukemia = tested on: HL-60(TB) leukemia
HCC-2998 colon = tested on: HCC-2998 colon

Measured: TGI

CNC(=O)C1CCC(=O)N1CN(C(C)=O)c1ccccc1 (stereo unspecified)
0.426 µM: CCRF-CEM leukemia
84 µM: SR leukemia
not listed: BT-549 breast | HL-60(TB) leukemia | HCC-2998 colon
> 100 µM: all other assays above

CCOC(=O)CCC(NC(=O)c1ccc(OCc2ccc3nc(OC)c(OC)nc3c2)cc1)C(=O)OCC (stereo unspecified)
69.2 µM: MALME-3M melanoma
32.8 µM: COLO 205 colon
64.8 µM: NCI-H522 lung
49.9 µM: OVCAR-3 ovarian
91.1 µM: MDA-MB-435
74.6 µM: SK-MEL-2 melanoma
96.8 µM: M14 melanoma
73.5 µM: HL-60(TB) leukemia
90.7 µM: RXF 393 renal
93.5 µM: CCRF-CEM leukemia
not listed: EKVX NSCLC | OVCAR-4 ovarian | NCI/ADR-RES ovarian | MDA-MB-231 breast
> 100 µM: all other assays above
